Where “and” joins values, the source holds several entries; their conditions need not be identical. Identical values can stand only once. Toxic doses and inconclusive results are not listed.

The subject of this assay is B6C3F1 mice, B16 melanoma ip, median survival T/C. Description: NCI In Vivo Anticancer Drug Screen. Data for tumor model B16 Melanoma (intraperitoneal) in B6C3F1 mice. Particulars: endpoint: median survival time, higher = longer survival. The gist of the method: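 Antitumor effect was judged in mice with transplanted tumors by dividing the treated group's survival measure by that of vehicle controls.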

Where [1] appears, read: dose: 25.0 mg/kg/injection, schedule: Q01DX009 (ip), vehicle: saline.
The mark [2] stands for this setting: dose: 50.0 mg/kg/injection, schedule: Q01DX009 (ip), vehicle: saline.
Where [3] appears, read: dose: 100.0 mg/kg/injection, schedule: Q01DX009 (ip), vehicle: saline.
Setting [4] is: dose: 50.0 mg/kg/injection, schedule: Q01DX009 (ip), vehicle: saline with Tween-80.
[5] abbreviates: dose: 100.0 mg/kg/injection, schedule: Q01DX009 (ip), vehicle: saline with Tween-80.
[6] abbreviates: dose: 200.0 mg/kg/injection, schedule: Q01DX009 (ip), vehicle: saline with Tween-80.
The mark [7] stands for this setting: dose: 400.0 mg/kg/injection, schedule: Q01DX009 (ip), vehicle: saline with Tween-80.
[8] abbreviates: dose: 25.0 mg/kg/injection, schedule: Q01DX009 (ip), vehicle: saline with Tween-80.
Where [9] appears, read: dose: 6.25 mg/kg/injection, schedule: Q01DX009 (ip), vehicle: saline with Tween-80.
[10] abbreviates: dose: 12.5 mg/kg/injection, schedule: Q01DX009 (ip), vehicle: saline with Tween-80.

For the compound `CCCC(=O)O.CCCC(=O)O.CCCC(=O)O.CCCC(=O)O.[Rh].[Rh]`, the T/C was 100 % of control and 101 % of control (dose: 0.03 mg/kg/injection, schedule: Q01DX009 (ip), vehicle: saline + alcohol); 103 % of control and 104 % of control (dose: 0.06 mg/kg/injection, schedule: Q01DX009 (ip), vehicle: saline + alcohol); 100 % of control and 107 % of control (dose: 0.12 mg/kg/injection, schedule: Q01DX009 (ip), vehicle: saline + alcohol); 98 % of control and 101 % of control (dose: 0.25 mg/kg/injection, schedule: Q01DX009 (ip), vehicle: saline + alcohol); 101 % of control and 104 % of control (dose: 0.5 mg/kg/injection, schedule: Q01DX009 (ip), vehicle: saline + alcohol); 108 % of control (dose: 1.0 mg/kg/injection, schedule: Q01DX009 (ip), vehicle: saline + alcohol).

Turning to `CN(N=O)C(N)=O`, the T/C (dose: 12.0 mg/kg/injection, schedule: Q01DX009 (ip), vehicle: saline) was 188 % of control.

As for `NC(Cn1ccc(=O)c(O)c1)C(=O)O` (configuration not stated), the T/C was 107 % of control (dose: 12.5 mg/kg/injection, schedule: Q01DX009 (ip), vehicle: saline); 111 % of control under setting [1]; 101 % of control under setting [2]; 105 % of control under setting [3]; 105 % of control (dose: 200.0 mg/kg/injection, schedule: Q01DX009 (ip), vehicle: saline).

On to `Oc1ccc2ccccc2c1N=Nc1ccc(Cl)cc1`, for which the T/C under setting [4] is 115 % of control and 118 % of control; the T/C under setting [5] was 114 % of control and 103 % of control; the T/C under setting [6] is 92 % of control and 101 % of control; the T/C under setting [7] is 109 % of control.

On to `O=C(O)CC(=O)O.[NH-]CC[NH-].[Pt+2]`, for which the T/C (dose: 12.5 mg/kg/injection, schedule: Q01DX009 (ip), vehicle: dextrose) was 175 % of control and the T/C (dose: 25.0 mg/kg/injection, schedule: Q01DX009 (ip), vehicle: dextrose) is 86 % of control.

For `O=C(Nc1cc(Cl)ccc1C(=O)O)c1cccc(C[n+]2ccccc2)c1`, the T/C under setting [8] is 101 % of control, the T/C under setting [4] was 94 % of control and the T/C under setting [5] was 94 % of control.

As for `CC(C)C(NC(=O)C(F)(F)F)C(=O)O` (configuration not stated), the T/C runs as follows: under setting [2], 96 % of control; under setting [3], 89 % of control.

As to `S=C1CCCCN1`, the T/C is 107 % of control (dose: 25.0 mg/kg/injection, schedule: Q01DX009 (ip), vehicle: distilled water + alcohol); 98 % of control (dose: 50.0 mg/kg/injection, schedule: Q01DX009 (ip), vehicle: distilled water + alcohol); 107 % of control (dose: 100.0 mg/kg/injection, schedule: Q01DX009 (ip), vehicle: distilled water + alcohol); 101 % of control (dose: 200.0 mg/kg/injection, schedule: Q01DX009 (ip), vehicle: distilled water + alcohol).

With `C=C1C(=O)OC2CC(C)C3C4OC4C(O)C3(C)C(O)C12` (configuration not stated), the T/C by setting is: (dose: 0.4 mg/kg/injection, schedule: Q01DX009 (ip), vehicle: saline) 104 % of control; (dose: 0.8 mg/kg/injection, schedule: Q01DX009 (ip), vehicle: saline) 110 % of control; (dose: 1.56 mg/kg/injection, schedule: Q01DX009 (ip), vehicle: saline) 108 % of control; (dose: 3.13 mg/kg/injection, schedule: Q01DX009 (ip), vehicle: saline) 124 % of control.

On to `Cc1ccc(N=NN(C)C)cc1`, for which the T/C is 100 % of control under setting [8], 110 % of control under setting [4] and 107 % of control under setting [5].

On to `C/C1=C/C(C)C(O)C(O)C(=O)C2(C)CNC3=C(O2)C(=O)c2c(cc(C)c(O)c2C1=O)C3=O` (configuration not stated), for which the T/C was 103 % of control (dose: 4.0 mg/kg/injection, schedule: Q01DX009 (ip), vehicle: distilled water + Tween-80); 100 % of control (dose: 8.0 mg/kg/injection, schedule: Q01DX009 (ip), vehicle: distilled water + Tween-80); 105 % of control (dose: 16.0 mg/kg/injection, schedule: Q01DX009 (ip), vehicle: distilled water + Tween-80); 103 % of control (dose: 32.0 mg/kg/injection, schedule: Q01DX009 (ip), vehicle: distilled water + Tween-80).

As for `O=C[C@@H](CO)O[C@H](C=O)c1c[nH]c(=O)[nH]c1=O`, the T/C under setting [1] is 105 % of control and the T/C under setting [2] is 110 % of control.

As to `Cn1c2c(c3ccccc3c1=O)C(=O)c1ccccc1-2`, the T/C is 114 % of control (dose: 3.13 mg/kg/injection, schedule: Q01DX009 (ip), vehicle: saline with Tween-80); 105 % of control under setting [9]; 98 % of control and 101 % of control under setting [10]; 104 % of control under setting [8]; 96 % of control under setting [4]; 102 % of control under setting [5]. In addition, the T/C was 94 % of control under setting [6] and 88 % of control under setting [7].

As to `O=Cc1c(O)c2ccccc2[nH]c1=O`, the T/C under setting [9] is 109 % of control and 107 % of control; the T/C under setting [10] was 108 % of control and 105 % of control; the T/C under setting [8] was 119 % of control.

As for `Cc1cc2c(C(C)C)c(O)c(O)c(C=NCCO)c2c(O)c1-c1c(C)cc2c(C(C)C)c(O)c(O)c(C=NCCO)c2c1O`, the T/C under setting [8] is 109 % of control and 111 % of control and 103 % of control; the T/C under setting [4] is 108 % of control and 109 % of control and 91 % of control; the T/C under setting [5] is 109 % of control and 121 % of control and 101 % of control; the T/C under setting [6] is 114 % of control and 120 % of control; the T/C under setting [7] is 153 % of control.

With `COc1cccc2c1C(=O)c1c(O)c3c(c(O)c1C2=O)C[C@@](O)(C(C)=O)C[C@@H]3OC1CC(N(C)Cc2ccccc2)C(O)C(C)O1` (some centres not stated), the T/C is 114 % of control (dose: 3.13 mg/kg/injection, schedule: Q01DX001 (ip), vehicle: distilled water + Tween-80) and 122 % of control (dose: 12.5 mg/kg/injection, schedule: Q01DX001 (ip), vehicle: distilled water + Tween-80).

Take `CC(C)=CCC/C(C)=C\C=N\NS(=O)(=O)c1ccc([N+](=O)[O-])cc1`: the T/C is 89 % of control under setting [9], 93 % of control under setting [10], 100 % of control under setting [8] and 94 % of control under setting [4].

(Values after PubChem BioAssay AID200 (DTP/NCI, 2004).)
